From the supplement of paper PMC10307832

Experiments:
Test in all cases: relative viability (nuclei count vs DMSO), 5 days (fraction); higher = more cells survive
[1] = compound: CCC1=CN=CN=C1N2CCN(CC2)CC3=NC4=C(N3)C=C(C=C4)C(F)(F)F + C[C@@H](Oc1cc(-c2cnn(C3CCNCC3)c2)cnc1N)c1c(Cl)ccc(F)c1Cl [Crizotinib] (partner 1 µM)
Outline: (§1)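 Dosing by pin tool came one day after lung cancer cell lines were seeded in 1536-well plates, using either one drug or a fixed anchor-drug dose plus five library-drug doses (not always all listed) in √10 steps. After 5 days, nuclei were counted on 4× images. Relative viability is treated-well nuclei count divided by vehicle-well nuclei count, and values are medians of duplicate plates.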

[2] = compound: CCC1=CN=CN=C1N2CCN(CC2)CC3=NC4=C(N3)C=C(C=C4)C(F)(F)F + O=C(CCCCCCC(=O)Nc1ccccc1)NO [Vorinostat] (partner 1 µM)
Outline: as §1

[3] = compound: N=C1NC(=O)/C(=C/c2ccc(O)cc2)S1 [Mirin] + CC1(C)CCC(c2ccc(Cl)cc2)=C(CN2CCN(c3ccc(C(=O)NS(=O)(=O)c4ccc(N[C@H](CCN5CCOCC5)CSc5ccccc5)c(S(=O)(=O)C(F)(F)F)c4)cc3)CC2)C1 [Navitoclax] (partner 0.5 µM)
Outline: as §1

[4] = compound: N=C1NC(=O)/C(=C/c2ccc(O)cc2)S1 [Mirin] + O=C(c1cc(Cc2n[nH]c(=O)c3ccccc23)ccc1F)N1CCN(C(=O)C2CC2)CC1 [Olaparib] (partner 8 µM)
Outline: as §1

| Cell Line | relative viability ([1]; first compound 0.04 µM) | relative viability ([1]; first compound 0.1265 µM) | relative viability ([1]; first compound 0.4 µM) | relative viability ([1]; first compound 1.265 µM) | relative viability ([1]; first compound 4 µM) | relative viability ([2]; first compound 0.04 µM) | relative viability ([2]; first compound 0.1265 µM) | relative viability ([2]; first compound 0.4 µM) | relative viability ([2]; first compound 1.265 µM) | relative viability ([2]; first compound 4 µM) | relative viability ([3]; first compound 0.25 µM) | relative viability ([3]; first compound 0.7906 µM) | relative viability ([3]; first compound 2.5 µM) | relative viability ([3]; first compound 7.906 µM) | relative viability ([3]; first compound 25 µM) | relative viability ([4]; first compound 0.25 µM) | relative viability ([4]; first compound 0.7906 µM) | relative viability ([4]; first compound 2.5 µM) | relative viability ([4]; first compound 7.906 µM) | relative viability ([4]; first compound 25 µM) |
| --- | --- | --- | --- | --- | --- | --- | --- | --- | --- | --- | --- | --- | --- | --- | --- | --- | --- | --- | --- | --- |
| SW 1573 | 0.81 | 0.833 | 0.968 | 0.834 | 0.922 | 0.623 | 1.08 | 0.756 | 0.575 | 0.734 | 0.989 | 0.98 | 0.825 | 0.88 | 0.608 | 0.481 | 0.408 | 0.46 | 0.37 | 0.271 |
| NCI-H2085 | 0.86 | 0.909 | 0.93 | 0.892 | 0.948 | 0.728 | 0.709 | 0.697 | 0.763 | 0.766 | 0.978 | 1.17 | 1.25 | 1.12 | 1.09 | 0.773 | 0.752 | 0.773 | 0.949 | 0.808 |
| NCI-H520 | 0.73 | 0.784 | 0.837 | 0.796 | 1.12 | 0.854 | 0.684 | 0.663 | 0.576 | 0.591 | 1.03 | 1.11 | 1.35 | 0.829 | 0.676 | 0.311 | 0.336 | 0.307 | 0.349 | 0.187 |
| SK-LU-1 | 1 | 1.1 | 0.99 | 1.06 | 1.02 | 0.675 | 0.74 | 0.76 | 0.777 | 0.68 | 1.05 | 0.909 | 0.793 | 0.772 | 0.498 | 0.5 | 0.532 | 0.449 | 0.357 | 0.425 |
| HCC-15 | 0.75 | 0.78 | 0.819 | 0.946 | 1.06 | 0.864 | 0.831 | 0.789 | 0.76 | 0.82 | 0.755 | 0.689 | 0.762 | 0.713 | 0.52 | 0.718 | 0.675 | 0.73 | 0.536 | 0.502 |
| H3255 | 0.864 | 0.888 | 0.794 | 0.757 | 0.941 | 0.946 | 0.576 | 0.929 | 0.762 | 0.754 | 0.499 | 0.59 | 0.628 | 0.513 | 0.47 | 0.55 | 0.539 | 0.541 | 0.537 | 0.547 |
| NCI-H647 | 1.12 | 1.13 |  | 1.04 | 1.19 | 0.453 | 0.591 | 0.414 | 0.364 | 0.543 | 1.05 |  | 1.06 | 1.11 | 1.08 | 0.567 | 0.617 | 0.617 | 0.479 | 0.164 |
| NCI-H2126 | 1.01 | 1 | 0.959 | 1.01 | 1.1 | 0.794 | 0.781 | 0.766 | 0.595 | 0.742 | 0.811 | 0.81 | 0.819 | 0.852 | 0.85 | 0.929 | 0.925 | 0.951 | 0.947 | 0.959 |
